Where no end group is shown, it is not given here.
Columns and labels:
HLA-A*0201 molecule = HLA-A*0201 molecule (Homo sapiens, UniProt P04439, D140Y/D185E/D98H/E176V/E277Q/G131W/G231S/I119V/I121R/I166T/I218V/L300P/L318F/N151K/N90K/P208A/P217A/Q86G/Q94H/R138H/R169H/T345S); assay: Peptide binding to HLA-A*0201 molecule on JY cells (flow cytometry, Kd); details: HLA-A*0201, JY cells
Protocol: The ability of a peptide to bind to an HLA-A*0201 molecule, which is a product of the HLA-A*0201 gene, was measured using strain JY cells expressing the HLA-A*0201 molecule.
JY cells were first exposed to acidic conditions at a pH of 3.8 for 30 seconds, thus dissociating and removing a β2m light chain and an endogenous peptide, which were noncovalently associated with the HLA-A* 0201 molecule. After neutralization, a reconstitution experiment was carried out.
The above-mentioned JY cells and the purified […] were added to serial dilutions of peptide for which the binding ability needs to be measured, and incubation was carried out on ice for 4 hours. HLA-A*0201 molecules that had reassociated up to this time point were stained using the fluorescently-labeled monoclonal antibody BB7.2, a conformation dependent monoclonal Ab specific for an assembled form of HLA-A*0201 molecule.
Subsequently, the amount of fluorescence per cell was measured using a flow cytometer and a dissociation constant Kd value was calculated by a method published in the literature (Udaka et al., Immunogenetics, 51, 816-828, 2000).

[1] = tested on: W10-specific CD8 positive T cells; assay: HLA-A24 tetramer flow cytometry of peptide-specific T cells; type: cell-based, human; details: patient KB07-006, PBMCs incubated with W10 peptide
Protocol: HLA-A24 tetramer was prepared by modifying a method by Altman et al. (Altman, J D, Moss, P A., Goulder, P J, Barouch, D H, McHeyzer-Williams, M G, Bell, J I, McMichael, A J, Davis, M M. Phenotypic analysis of antigen-specific T lymphocytes. Science […] 274, 94-96.)
HLA-A24 tetramer was prepared by expressing an HLA-A*2402 molecule in E. coli and W10 peptide was bound thereto. Furthermore, the C-terminus of the complex was modified by a site-specific biotinyltion. The product was then complexed with streptavidin (SA), giving rise to a molecular assembly consisting of 4 molecules of W10-bound HLA-A*2402 molecules and 1 SA.
Here in this assay, T cells specific for a HLA-A24-W10 complex was fluorescently labeled with […] (phycoerythrin) conjugated SA and antigen specific T cells were identified by flow cytometry.
cDNAs of HLA-A*2402, which is an H-chain constituting an HLA-A*2402 molecule, and human β2m 02-microglobulin) which is a light chain, were inserted into a pET-21d+vector (Novagen, Merck) under T7 promoter, respectively. The resultant vector was introdyced into E. coli BL21 (DE3) pLysS, and expression of the gene was induced using IPTG. […]
This HLA-A*2402-W10 monomer was associated with PE-labeled SA at a molecular ratio of 4:1, thus preparing HLA tetramer. […] T cells were incubated with HLA-A*2402-W10 or HLA-A*2402-HER2-63 on ice for 1 hour and then analyzed by flow cytometry.

Sequence: ALLPAVPSL [W10]
- Binding assay data (−log Kd) (HLA-A*0201 molecule): 7.84
- W10-specific CD8 positive T cells (HLA-A24-W10 tetramer staining) [1]: increased

From patent US20100255020A1, “METHOD FOR INDUCING CYTOTOXIC T-CELLS, CYTOTOXIC T-CELL INDUCERS, AND PHARMACEUTICAL COMPOSITIONS AND VACCINES EMPLOYING THEM” (NEC CORPORATION, priority 2007, published 2010)
